Measured values from patent US12643913B2, “Mcl-1 inhibitor formulations” (AMGEN INC., priority 2020, dated 2026).
“Also recorded” adds a separate entry of the source.

Experiments:
[1] = Moisture sorption profile (DVS); assay type: physicochemical; conditions: by 95% RH; listed as amorphous AMG 397
Protocol: Moisture Sorption: Moisture sorption data was collected using a Surface Measurement Systems DVSAdvantage instrument. Equilibrium criteria were set at ±0.001% weight change in 10 minutes with a maximum equilibrium time of 380 minutes.
Moisture Sorption: Moisture sorption data was collected using a Surface Measurement Systems DVSAdvantage instrument. Equilibrium criteria were set at ±0.001% weight change in 10 minutes with a maximum equilibrium time of 360 minutes.

[2] = Clinical observations in the beagle dog PK study; assay type: in vivo, male beagle dogs; conditions: 3 mg/kg PO, individual dogs
Protocol: (§1) Briefly, during each phase five male beagle dogs were assigned to each group of the study. All animals were fasted for at least eight hours prior to dosing and through the first four hours of blood sample collection for each phase. Food was returned within 30 minutes following collection of the last blood sample at the four-hour collection interval. Each animal in Phase 1, received a single oral (PO) gavage dose of the appropriate test article formulation as outlined in the study design Table 6. Oral gavage dosing formulations were continuously stirred throughout dosing. The gavage tube was rinsed with approximately 10 mL of tap water following dosing (prior to removal of the gavage tube). Following each study phase a 7-day washout period was allowed prior to the dosing of the next phase. The same five dogs were assigned to either group 1 or group 2 formulations for the duration of the study.
(§2) Test Article Administration: A total of 10 male beagle dogs were initially assigned to study. All animals were fasted for at least eight hours prior to dosing and through the first four hours of blood sample collection for each phase, where applicable (food will be returned within 30 minutes following collection of the last blood sample at the four hour collection interval, where applicable). Total fasting time […] 24 hours.
Different pre-treatments were assigned for each phase of the study to mimic several scenarios: • 1. No pre-treatment was administered for Phase 1 as it served as a control. • 2. During Phase 2, at 1 hour 54 minutes to 1 hour 58 minutes prior to dose administration, all animals were pretreated with two 20 mg (40 mg total) oral tablets of famotidine followed by a 10 mL dose of deionized water. […] This was used to determine the role of stomach pH on exposure. • 3. During Phases 3 and 4, at 30 to 38 minutes prior to dose administration, all animals were pretreated with a single intramuscular dose of pentagastrin in phosphate buffered saline, pH 7.4, at a dose level of 0.006 mg/kg and a dose volume of 0.05 mL/kg. The pentagastrin dose was used to ensure that the dogs stomach pH was normalized to pH ˜2.0 as it is known that the dogs stomach pH is often higher than that of humans under resting conditions. • 4. In addition, […], at 1 hour 3 minutes to 1 hour 6 minutes prior to dose administration and 4 hours 10 minutes to 4 hours 11 minutes following dose by oral gavage at a dose level of 3 mg/kg and a dose volume of 4 mL/kg. This final phase was used to study if P-gp played a role in absorption.

[3] = Pharmacokinetics after oral gavage to male beagle dogs with different pre-treatments (Amgen study 150528); assay type: in vivo; conditions: 3 mg/kg PO; for AUCt / Cl/F / Cmax / Tmax / T½: male beagle dogs
Protocol: The pharmacokinetics of AMG 397 were assessed following oral administration to male beagle dogs as either a suspension of the crystalline hydrate form of AMG 397 or an amorphous suspension in 2% HPMC, 0.01% Tween 80. The full protocol is described in Amgen study number 150528. The goal of this study was to determine if the amorphous material would lead to increases in bioavailability and if variability in dosing could be reduced. In addition, oncology patients could be receiving acid-reducing agents as co-medication, so it is important to determine if exposure is reduced with elevated stomach pH and if an amorphous formulation of AMG 397 could overcome the drug-drug interaction (DDI). For the studies below, Form 1 is the crystalline hydrate form of AMG 397 and amorphous is the amorphous form of AMG 397.
as §1, §2
Each animal in Phase 1, Groups 1 and 2 received a single oral (PO) gavage dose of the appropriate test article formulation as outlined in the following study design table. Oral gavage dosing formulations was continuously stirred throughout dosing. The gavage tube was rinsed with approximately 10 mL of tap water following dosing (prior to removal of the gavage tube). No pre-treatment will be required for Phase 1.
After a 7-day washout period, each animal in Phase 2, Groups land 2 received a single oral (PO) gavage dose of the appropriate test article formulation as outlined in the following study design table. Oral gavage dosing formulations were continuously stirred throughout dosing. The gavage tube were rinsed with approximately 10 mL of tap water following dosing (prior to removal of the gavage tube). Two hours prior to dosing, each animal received two 20 mg (40 mg total) oral tablets of famotidine followed by a 10 mL dose of deionized water.
After another 7-day washout period, each animal in Phase 3, Groups land 2 received a single oral (PO) gavage dose of the appropriate test article formulation as outlined in the following study design table. Oral gavage dosing formulations were continuously stirred throughout dosing. The gavage tube was rinsed with approximately 10 mL of tap water following dosing (prior to removal of the gavage tube). Thirty minutes prior to dosing, each animal received an intramuscular dose of pentagastrin in phosphate buffered saline at a dose level of 0.006 mg/kg and a dose volume of 0.05 mL/kg.
After a final 7-day washout period, each animal in Phase 4, Groups 1 and 2 received a single oral (PO) gavage dose of the appropriate test article formulation as outlined in the following study design table. Oral gavage dosing formulations were continuously stirred throughout dosing. […]

[4] = 2-stage micro-dissolution (faSSGF then faSSIF), amorphous vs crystalline hydrate; assay type: physicochemical
Protocol: A 2-stage micro-dissolution experiment was performed to compare the dissolution of the amorphous AMG 397 drug substance to the crystalline hydrate form of AMG 397, as shown in FIG. 5. […] Upon dilution with fasted simulated intestinal fluid (faSSIF, pH 6.0 after dilution) the concentration of the amorphous material was seen to drop before increasing over the next 10 minutes and reaching a plateau. No precipitation of the amorphous material was observed, and it maintained at 5× higher concentration than the crystalline hydrate form of AMG 397 for the duration of the experiment. […] Unlike the amorphous material no further dissolution occurred once the media was switched to faSSIF.

[5] = Phase 2, famotidine pre-treatment (stomach pH ~6.5)
[6] = Phase 3, pentagastrin pre-treatment (stomach pH ~2.0)
[7] = Phase 4, pentagastrin pre-treatment + P-gp inhibitor GF120918

In the case of `CO[C@]1(CN2CCN3CCCC[C@@H]3C2)/C=C/C[C@H](C)[C@@H](C)S(=O)(=O)NC(=O)c2ccc3c(c2)N(C[C@@H]2CC[C@H]21)C[C@@]1(CCCc2cc(Cl)ccc21)CO3` [AMG 397 Amorphous], the “Moisture sorption weight gain” value [1] is reported as roughly 6.4%, the “Positive clinical findings (observation)” value ([2]; Phase 1 (Days 1 to 7), no pre-treatment) is reported as “Yellow, frothy vomitus” and the “Positive clinical findings (observation)” value ([2]; Phase 2 (Days 8 to 14), famotidine pre-treatment) is reported as “White, frothy vomitus; also recorded: Soft feces; also recorded: Yellow, frothy vomitus”. For the same compound, the “Positive clinical findings (observation)” value ([2]; Phase 3 (Days 15 to 21), pentagastrin pre-treatment) was “Salivation; also recorded: White, frothy vomitus; also recorded: Yellow, frothy vomitus”, the “Positive clinical findings (observation)” value ([2]; Phase 4 (Days 22 to 24), pentagastrin pre-treatment and inhibitor GF120918 pre- and post-treatment) was “Small amount of white,” and the “Positive clinical findings (observation)” value ([2]; Phase 5 (Days 71 to 73), inhibitor GF120918 pre- and post-treatment, 3 mg/kg) was “Salivation; also recorded: Watery feces; also recorded: Yellow, frothy vomitus; also recorded: Yellow, discolored feces; also recorded: Mucoid feces; also recorded: Tan, frothy vomitus”. For the same compound, the AUCt ([3]; Phase 1, no pre-treatment) was 17.3 µM·h, the Cl/F ([3]; Phase 1, no pre-treatment) was 6.7 mL/min/kg and the Cmax ([3]; Phase 1, no pre-treatment) was 790 nM. For the same compound, the Tmax ([3]; Phase 1, no pre-treatment) was 3.1 h, the T½ ([3]; Phase 1, no pre-treatment) was 18.4 h and the AUCt [3, 5] was 21.1 µM·h. For the same compound, the Cl/F [3, 5] was 3.67 mL/min/kg, the Cmax [3, 5] was 900 nM and the Tmax [3, 5] was 8.1 h. The T½ [3, 5] was 19.7 h, the AUCt [3, 6] was 18 µM·h and the Cl/F [3, 6] was 4.33 mL/min/kg. For the same compound, the Cmax [3, 6] was 780 nM, the Tmax [3, 6] was 10.4 h and the T½ [3, 6] was 18.3 h. The AUCt [3, 7] was 26.0 µM·h, the Cl/F [3, 7] was 4.33 mL/min/kg and the Cmax [3, 7] was 950 nM. For the same compound, the Tmax [3, 7] was 12.4 h, the T½ [3, 7] was 16.5 h and the “Effect of stomach pH on exposure” value ([3]; beagle dogs) was “not affected by stomach pH”. The “Bioavailability relative to the crystalline hydrate form” value ([3]; stomach pH elevated, beagle dogs) was 3.4 fold, the “Bioavailability relative to the crystalline hydrate form” value ([3]; stomach pH low, beagle dogs) was 1.6 fold and the “Concentration relative to the crystalline hydrate form” value ([4]; after dilution with faSSIF (pH 6.0), maintained for the duration of the experiment) was 5 ×. For the same compound, the “Concentration relative to the crystalline hydrate form” value ([4]; simulated gastric fluid (faSSGF), after 20 minutes) was roughly 8 ×.
